Test results published in patent US11759445B2, “Use of Rivastigmine in preparation of anti-radiation medicament” (priority 2020, dated 2023).

Tests used:
crypt stem cells Lgr5+ = experiment: In vitro medicament screening experiment on crypt stem cells Lgr5+ of mice (GFP fluorescence after 10 Gy irradiation); type: cell-based; conditions: Mus musculus, light or radiation study, 240 h, 10 μM medicament, GFP fluorescence 10 d after irradiation, read-out: increment of the Lgr5+ stem cells compared with IR groups
Excerpt: 1.2.1 In Vitro Medicament Screening Experiment on Crypt Stem Cells Lgr5^+ of Mice
1) Lgr5-GFP mice were sacrificed by cervical dislocation, and enterocoelia was opened and the whole small intestine was taken out, and then the small intestine was put to a pre-cooled HBSS buffer solution to remove mesentery and adipose tissues as much as possible, and dissected longitudinally to wash out contents of the small intestine.
2) Villi and contents inside the intestinal cavity were scraped by a glass slide, and then the remaining intestinal cavity was washed for once to twice.
3) The whole small intestine was quickly cut into 5 mm intestinal segments.
4) The intestinal segments were transferred to a 50 mL centrifugal tube, and 25 mL HBSS and 250 μL penicillin/streptomycin solution were added for incubation for 10 min at room temperature, and then the centrifugal tube was slightly inverted to mix evenly for 2-3 times.
5) Supernatant was absorbed, and 10 mL new HBSS was added to wash the intestinal segments for 2-3 times till the final intestinal segments were cleaned thoroughly, then a 70 μm filter sieve was used for filtering to retain the remaining intestinal segments.
6) The intestinal segments were transferred to a 50 mL centrifugal tube, and added to a 10 mL pre-blended digestive solution for incubation for 5 min at room temperature.
7) The centrifugal tube was shaken violently or swirled for several seconds, and then a 70 μm filter sieve was used for filtering.
8) The intestinal segments were transferred to a new 50 mL centrifugal tube, and a 10 mL digestive solution was added for incubation on ice for 30 min, and then the centrifugal tube was shaken violently or swirled for several seconds, and then a 70 μm filter sieve was used for filtering. A black 96-well plate was put on an incubator for preheating during the incubation on ice.
9) The intestinal segments were transferred to a new 50 mL centrifugal tube, and 10 mL HBSS was added, then the centrifugal tube was shaken violently or swirled for several seconds, and a 70 μm filter sieve was used for filtering to retain filtrate.
10) […] for 10 min at 4° C.
11) Supernatant was removed, and crypt cells were precipitated and resuspended by a crypt cell culture solution, and then cell counting was performed microscopically.
12) Cells were diluted by a ratio of the crypt cell culture solution to matrigel=1:1 (v/v), so as to ensure that per 10 μL of mixed liquor contained about 100 crypt cells.
13) The preheated black 96-well plate was taken out, and 10 μL mixed liquor was added to the center of each well, and then the well plate was put to an incubator for 10 min at 37° C.
14) After the matrigel was solidified, each medicament in Bioactive Compound Library (790 types) was diluted by a medium to a final concentration of 10 μM, and then 100 μL was added to per well.
15) The 96-well plate was put on a multi-mode microplate reader to read fluorescence intensity under the conditions of excitation wavelength at 485 nm and emission wavelength at 528 nm, and to record the values on the same day.
16) Crypt cells were irradiated with 10 Gy radiation, and the fluorescence intensity for consecutive 10 d after irradiation was recorded; afterwards, the background fluorescence intensity of a blank control was removed, and a fluorescence intensity curve was drawn; and the test results were shown in FIGS. 1-4.
Crypt stem cells Lgr5^+ separated from Lgr5-GFP mice in vivo carried GFP fluorescence, and the change of the mean fluorescence intensity (MFI) represented the proliferation of crypt stem cells Lgr5*. […]

C57BL/6 mice = experiment: Survival of mice at a lethal dose (10 Gy whole body irradiation) after intraperitoneal medicament; type: in vivo, mouse; conditions: for influence on the survival time of mice after receiving irradiation: i.p. half an hour before 10 Gy whole body irradiation
Excerpt: 1.2.2 Experiment for Verifying the Survival Rate of Mice at a Lethal Dose
Mice were subjected to 10 Gy whole body irradiation with an X-ray biological irradiator in Department of Medicine having a dose rate of 1.5 Gy/min; and before irradiation, mice were intraperitoneally injected the medicament screened out via an in vitro experiment, and then continuously raised in a temporary storage room of the animal center after irradiation.
4 to 6 week-age C57BL/6 mice were selected as experimental subjects, and divided into control groups and experimental groups, and subjected to 10 Gy whole body irradiation with a dose rate of 1.5 Gy/min; mice in the experimental subjects were respectively intraperitoneally injected the medicaments screened half an hour before irradiation, and the survival time was recorded after irradiation. Among the medicaments, water-soluble Don-H, Pra-C and DL-Pan are dissolved by normal saline, and others were dissolved by 5 g/100 mL DMSO+edible oil. The medicament was prepared into a stock solution having a corresponding concentration according to the volume that 20 g mice were intraperitoneally injected 100 μL medicament.

Structure (SMILES)	fold induction at 10 µM (crypt stem cells Lgr5+)	influence on the survival time of mice after receiving irradiation (C57BL/6 mice; dose not stated)	further results
C[n+]1ccccc1/C=N/O [Pralidoxime chloride]	4.8		
N#C[C@@H]1C[C@@H]2C[C@@H]2N1C(=O)[C@@H](N)C12CC3CC(CC(O)(C3)C1)C2 [Saxagliptin hydrate]	15.9	no statistical significance	
CC(C)(CO)C(O)C(=O)NCCCO (racemic) [DL-Panthenol]	3.5	no statistical significance	
CCN(C)C(=O)Oc1cccc([C@H](C)N(C)C)c1 [Rivastigmine]	14.2		survival of mice after 30 d (C57BL/6 mice; 1 mg/kg i.p. before 10 Gy whole body irradiation): still survival mice after 30 d; survival of mice after 30 d (C57BL/6 mice; 2 mg/kg i.p. before 10 Gy whole body irradiation): still survival mice after 30 d; survival rate (C57BL/6 mice; 2 mg/kg i.p. before 10 Gy whole body irradiation, after 30 d, P<0.001 vs control group): greater than 40%; survival rate of the mice (C57BL/6 mice; intraperitoneally injected, 10 Gy whole body irradiation, 30 days post irradiation, dose not stated): greater than 40%
CN1CCCCC1CCN1c2ccccc2Sc2ccc([S+](C)[O-])cc21 (stereo not drawn) [Mesoridazine Besylate]	4.2	no statistical significance	
CCCOc1ccn2c(C(C)=O)cc(-c3ccccc3S(C)(=O)=O)c2c1 [GSK2801]	14.7	no statistical significance	
C[C@H](CCC(=O)O)[C@H]1CC[C@H]2[C@@H]3C(=O)C[C@@H]4CC(=O)CC[C@]4(C)[C@H]3CC(=O)[C@]12C [Dehydrocholic acid]	3.4		survival time of the mice (C57BL/6 mice; 10 mg/kg i.p. half an hour before 10 Gy whole body irradiation): did not improve the survival time; survival time of the mice (C57BL/6 mice; 20 mg/kg i.p. half an hour before 10 Gy whole body irradiation): did not improve the survival time; extension of the death time of the mice (C57BL/6 mice; 40 mg/kg i.p. half an hour before 10 Gy whole body irradiation, P<0.01): 2 days; survival time of the mice (C57BL/6 mice; 60 mg/kg i.p. half an hour before 10 Gy whole body irradiation): did not improve the survival time; survival time of the mice (C57BL/6 mice; 80 mg/kg i.p. half an hour before 10 Gy whole body irradiation): did not improve the survival time; survival time of the mice (C57BL/6 mice; 100 mg/kg i.p. half an hour before 10 Gy whole body irradiation): did not improve the survival time
